According to patent US6683027B2, “Herbicidal mixtures” (BASF Aktienegesellschaft, priority 2000, dated 2004):

Tests used:
Assay type in all cases: in vivo
Setaria viridis [1] = test: greenhouse pre-emergence trial, percent damage vs untreated control 21 days after treatment; details: SETVI, Example 1A
Lolium perenne [2] = test: as above; details: 3.75 g/ha, LOLPE
Lamium purpureum [3] = test: as above; details: 3.75 g/ha, LAMPU, Example 1A
Papaver rhoeas [4] = test: as above; details: PAPRH
Alopecurus myosuroides [5] = test: as above; details: ALOMY
Matricaria inodora [6] = test: as above; details: 3.75 g/ha, MATIN, Example 2
Veronica persica [7] = test: as above; details: VERPE
Alopecurus myosuroides [8] = test: greenhouse post-emergence trial, percent damage vs untreated control 21 days after treatment; details: ALOMY
Description: (§1) The trials are carried out under greenhouse conditions in pre- and post-emergence applications. The plant seeds are sown in pots containing a loamy sand soil (0.5 l). The herbicides are applied as single treatments, or in a combination comprising a compound of formula I and compound selected from group (2) as defined above, before or after emergence of weeds and crop. The herbicidal performance is assessed as percent damage in comparison to the untreated control plants. The assessment is done 21 days after the treatment. Wheat and barley are treated at the 3-4 leaf stage, the broad-leaf weeds at the 2-4 leaf stage and annual grasses at the 2-3 leaf stage.

Veronica persica [9] = test: as above; details: 3.75 g/ha, VERPE, Example 1B
Description: as §1

Apera spica-venti = test: as above; details: APESV
Description: as §1

Galium aparine = test: as above; details: GALAP
Description: as §1

Setaria viridis [10] = test: as above; details: SETVI
Description: as §1

Lolium perenne [11] = test: as above; details: LOLPE
Description: as §1

Stellaria media [12] = test: as above; details: STEME
Description: as §1

Papaver rhoeas [13] = test: as above; details: PAPRH, Example 1B
Description: as §1

Lamium purpureum [14] = test: as above; details: LAMPU
Description: as §1

Matricaria inodora [15] = test: as above; details: MATIN
Description: as §1

Stellaria media [16] = test: greenhouse pre-emergence trial, percent damage vs untreated control 21 days after treatment; details: STEME

FC(F)(F)c1ccc(-c2nccc(Oc3cccc(C(F)(F)F)c3)n2)cc1 [Compound A, 4-(3-trifluoromethylphenoxy)-2-(4-trifluoromethylphenyl)-pyrimidine]
Compound A alone (% control) (Setaria viridis [1]; 3.75 g/ha): 0%
Compound A alone (% control) (Setaria viridis [1]; 7.5 g/ha): 35%
Compound A alone (% control) (Lolium perenne [2]; Example 1A): 5%
Compound A alone (% control) (Lolium perenne [2]; Example 2): 15%
Compound A alone (% control) (Lamium purpureum [3]): 10%
Compound A alone (% control) (Papaver rhoeas [4]; 3.75 g/ha, Example 1A): 63%
Compound A alone (% control) (Papaver rhoeas [4]; 3.75 g/ha, Example 2): 0%
Compound A alone (% control) (Papaver rhoeas [4]; 7.5 g/ha, Example 2): 15%
Compound A alone (% control) (Alopecurus myosuroides [5]; 3.75 g/ha, Example 1A): 0%
Compound A alone (% control) (Alopecurus myosuroides [5]; 3.75 g/ha, Example 3): 0%
Compound A alone (% control) (Alopecurus myosuroides [5]; 7.5 g/ha, Example 1A): 5%
Compound A alone (% control) (Alopecurus myosuroides [5]; 7.5 g/ha, Example 3): 0%
Compound A alone (% control) (Matricaria inodora [6]): 50%
Compound A alone (% control) (Veronica persica [7]; 3.75 g/ha, Example 1A): 13%
Compound A alone (% control) (Veronica persica [7]; 3.75 g/ha, Example 2): 0%
Compound A alone (% control) (Veronica persica [7]; 7.5 g/ha, Example 1A): 33%
Compound A alone (% control) (Veronica persica [7]; 7.5 g/ha, Example 2): 23%
Compound A alone (% control) (Veronica persica [7]; 15 g/ha, Example 2): 60%
Compound A alone (% control) (Alopecurus myosuroides [8]; 3.75 g/ha, Example 1B): 10%
Compound A alone (% control) (Alopecurus myosuroides [8]; 3.75 g/ha, Example 12): 0%
Compound A alone (% control) (Alopecurus myosuroides [8]; 3.75 g/ha, Example 13): 3%
Compound A alone (% control) (Alopecurus myosuroides [8]; 7.5 g/ha, Example 1B): 28%
Compound A alone (% control) (Alopecurus myosuroides [8]; 7.5 g/ha, Example 4): 23%
Compound A alone (% control) (Alopecurus myosuroides [8]; 7.5 g/ha, Example 5): 3%
Compound A alone (% control) (Alopecurus myosuroides [8]; 7.5 g/ha, Example 13): 5%
Compound A alone (% control) (Alopecurus myosuroides [8]; 15 g/ha, Example 1B): 45%
Compound A alone (% control) (Alopecurus myosuroides [8]; 15 g/ha, Example 4): 28%
Compound A alone (% control) (Alopecurus myosuroides [8]; 15 g/ha, Example 5): 8%
Compound A alone (% control) (Alopecurus myosuroides [8]; 15 g/ha, Example 12): 0%
Compound A alone (% control) (Alopecurus myosuroides [8]; 15 g/ha, Example 13): 8%
Compound A alone (% control) (Alopecurus myosuroides [8]; 30 g/ha, Example 4): 50%
Compound A alone (% control) (Alopecurus myosuroides [8]; 30 g/ha, Example 5): 23%
Compound A alone (% control) (Alopecurus myosuroides [8]; 30 g/ha, Example 12): 10%
Compound A alone (% control) (Alopecurus myosuroides [8]; 30 g/ha, Example 13): 15%
Compound A alone (% control) (Alopecurus myosuroides [8]; 30 g/ha, Example 14): 15%
Compound A alone (% control) (Alopecurus myosuroides [8]; 60 g/ha, Example 5): 28%
Compound A alone (% control) (Alopecurus myosuroides [8]; 60 g/ha, Example 13): 43%
Compound A alone (% control) (Alopecurus myosuroides [8]; 60 g/ha, Example 14): 33%
Compound A alone (% control) (Veronica persica [9]): 80%
Compound A alone (% control) (Apera spica-venti; 3.75 g/ha, Example 1B): 25%
Compound A alone (% control) (Apera spica-venti; 3.75 g/ha, Example 7): 10%
Compound A alone (% control) (Apera spica-venti; 3.75 g/ha, Example 8): 10%
Compound A alone (% control) (Apera spica-venti; 3.75 g/ha, Example 12): 0%
Compound A alone (% control) (Apera spica-venti; 7.5 g/ha, Example 1B): 35%
Compound A alone (% control) (Apera spica-venti; 7.5 g/ha, Example 4): 50%
Compound A alone (% control) (Apera spica-venti; 7.5 g/ha, Example 10): 20%
Compound A alone (% control) (Apera spica-venti; 7.5 g/ha, Example 13): 10%
Compound A alone (% control) (Apera spica-venti; 7.5 g/ha, Example 14): 5%
Compound A alone (% control) (Apera spica-venti; 15 g/ha, Example 1B): 40%
Compound A alone (% control) (Apera spica-venti; 15 g/ha, Example 10): 50%
Compound A alone (% control) (Apera spica-venti; 15 g/ha, Example 14): 10%
Compound A alone (% control) (Apera spica-venti; 30 g/ha, Example 5): 68%
Compound A alone (% control) (Apera spica-venti; 30 g/ha, Example 12): 53%
Compound A alone (% control) (Galium aparine; 3.75 g/ha, Example 5): 10%
Compound A alone (% control) (Galium aparine; 3.75 g/ha, Example 10): 13%
Compound A alone (% control) (Galium aparine; 3.75 g/ha, Example 14): 40%
Compound A alone (% control) (Galium aparine; 7.5 g/ha, Example 5): 23%
Compound A alone (% control) (Galium aparine; 15 g/ha, Example 10): 20%
Compound A alone (% control) (Galium aparine; 15 g/ha, Example 12): 0%
Compound A alone (% control) (Galium aparine; 30 g/ha, Example 12): 20%
Compound A alone (% control) (Galium aparine; 60 g/ha, Example 10): 55%
Compound A alone (% control) (Setaria viridis [10]; 3.75 g/ha, Example 1B): 0%
Compound A alone (% control) (Setaria viridis [10]; 3.75 g/ha, Example 4): 15%
Compound A alone (% control) (Setaria viridis [10]; 3.75 g/ha, Example 5): 0%
Compound A alone (% control) (Setaria viridis [10]; 3.75 g/ha, Example 9): 0%
Compound A alone (% control) (Setaria viridis [10]; 3.75 g/ha, Example 10): 4%
Compound A alone (% control) (Setaria viridis [10]; 3.75 g/ha, Example 14): 0%
Compound A alone (% control) (Setaria viridis [10]; 7.5 g/ha, Example 1B): 23%
Compound A alone (% control) (Setaria viridis [10]; 7.5 g/ha, Example 5): 8%
Compound A alone (% control) (Setaria viridis [10]; 7.5 g/ha, Example 9): 5%
Compound A alone (% control) (Setaria viridis [10]; 7.5 g/ha, Example 10): 15%
Compound A alone (% control) (Setaria viridis [10]; 15 g/ha, Example 1B): 55%
Compound A alone (% control) (Setaria viridis [10]; 15 g/ha, Example 5): 58%
Compound A alone (% control) (Lolium perenne [11]; 3.75 g/ha, Example 1B): 10%
Compound A alone (% control) (Lolium perenne [11]; 3.75 g/ha, Example 12): 0%
Compound A alone (% control) (Lolium perenne [11]; 7.5 g/ha, Example 1B): 28%
Compound A alone (% control) (Lolium perenne [11]; 7.5 g/ha, Example 4): 23%
Compound A alone (% control) (Lolium perenne [11]; 15 g/ha, Example 1B): 50%
Compound A alone (% control) (Lolium perenne [11]; 15 g/ha, Example 5): 23%
Compound A alone (% control) (Lolium perenne [11]; 30 g/ha, Example 6): 60%
Compound A alone (% control) (Lolium perenne [11]; 30 g/ha, Example 7): 65%
Compound A alone (% control) (Lolium perenne [11]; 30 g/ha, Example 13): 28%
Compound A alone (% control) (Lolium perenne [11]; 60 g/ha, Example 7): 75%
Compound A alone (% control) (Lolium perenne [11]; 60 g/ha, Example 8): 75%
Compound A alone (% control) (Lolium perenne [11]; 60 g/ha, Example 11): 40%
Compound A alone (% control) (Lolium perenne [11]; 60 g/ha, Example 13): 63%
Compound A alone (% control) (Stellaria media [12]; 3.75 g/ha, Example 1B): 10%
Compound A alone (% control) (Stellaria media [12]; 3.75 g/ha, Example 4): 28%
Compound A alone (% control) (Stellaria media [12]; 7.5 g/ha, Example 1B): 18%
Compound A alone (% control) (Stellaria media [12]; 7.5 g/ha, Example 13): 30%
Compound A alone (% control) (Stellaria media [12]; 15 g/ha, Example 1B): 45%
Compound A alone (% control) (Stellaria media [12]; 15 g/ha, Example 9): 70%
Compound A alone (% control) (Stellaria media [12]; 30 g/ha, Example 1B): 70%
Compound A alone (% control) (Papaver rhoeas [13]; 3.75 g/ha): 30%
Compound A alone (% control) (Papaver rhoeas [13]; 7.5 g/ha): 65%
Compound A alone (% control) (Lamium purpureum [14]; 3.75 g/ha, Example 4): 20%
Compound A alone (% control) (Lamium purpureum [14]; 3.75 g/ha, Example 7): 20%
Compound A alone (% control) (Lamium purpureum [14]; 3.75 g/ha, Example 8): 20%
Compound A alone (% control) (Lamium purpureum [14]; 3.75 g/ha, Example 12): 35%
Compound A alone (% control) (Lamium purpureum [14]; 7.5 g/ha, Example 7): 35%
Compound A alone (% control) (Lamium purpureum [14]; 7.5 g/ha, Example 8): 35%
Compound A alone (% control) (Lamium purpureum [14]; 7.5 g/ha, Example 12): 55%
Compound A alone (% control) (Lamium purpureum [14]; 15 g/ha, Example 1B): 83%
Compound A alone (% control) (Lamium purpureum [14]; 15 g/ha, Example 7): 50%
Compound A alone (% control) (Lamium purpureum [14]; 15 g/ha, Example 8): 50%
Compound A alone (% control) (Matricaria inodora [15]; 3.75 g/ha, Example 10): 5%
Compound A alone (% control) (Matricaria inodora [15]; 7.5 g/ha, Example 10): 13%
Compound A alone (% control) (Matricaria inodora [15]; 7.5 g/ha, Example 13): 15%
Compound A alone (% control) (Matricaria inodora [15]; 15 g/ha, Example 9): 48%
Compound A alone (% control) (Matricaria inodora [15]; 15 g/ha, Example 10): 30%
Compound A alone (% control) (Stellaria media [16]; 3.75 g/ha, Example 1A): 0%
Compound A alone (% control) (Stellaria media [16]; 7.5 g/ha, Example 1A): 10%
Compound A alone (% control) (Stellaria media [16]; 7.5 g/ha, Example 2): 5%
Compound A alone (% control) (Stellaria media [16]; 15 g/ha, Example 1A): 60%
